Measurements published in US20220240499A1, “COMPOSITION AND METHOD FOR CRYOPRESERVATION OF CELLS” (Regents of the University of Minnesota, priority 2019, published 2022).
Where a SMILES comes first, the peptide text is derived from it. The star is where a group is joined. Cbz = O=C(OCc1ccccc1)*; CH2F = FC*

Tests used:
[1] = tested on: iPS cell aggregates; assay: Post-thaw cell reattachment (calcein AM, 24 h post-thaw) after controlled-rate freezing, development of buffer and additives; type: cell-based, human; settings: 100%: same as DMSO control; for Post-thaw reattachment rate of cell aggregates buffered in HBSS: HBSS buffer; for Post-thaw reattachment rate of cell aggregates buffered in PBS++: PBS++ buffer
Method: Cells were dissociated using ReLeSR™ and harvested as aggregates without centrifugation in the basal solution at cell concentration of ˜ 3×10^6/ml. Suspension of cell aggregates was loaded into cryovials (Nunc CryoTube, ThermoFisher Scientific) for 0.5 ml/vial. 2× cryopreservation solution was introduced to the cells dropwise for 0.5 ml/vial. Cells were then incubated at room temperature for exactly 30 min before freezing.
Cryovials of cells were frozen using a controlled-rate freezer (Kryo 10 Series III from Planer PLC in Middlesex, UK) following the steps listed below using a cooling rate, B, of 1° C./min and a seeding (or ice nucleation) temperature, TNUC, of −4° C.: • 1. Starting temperature 20° C. • 2. −10° C./min to 0° C. • 3. Hold at 0° C. for 10 min to equilibrate temperature inside and outside cryovials • 4. −1° C./min to −4° C. • 5. Hold at −4° C. for 15 min • 6. Induce ice nucleation when cryovial internal temperature reaches −4° C. towards the end of step 5 • 7. −1° C./min to −60° C. • 8. −10° C./min to −100° C.
Frozen cryovials were thawed in a 37° C. water bath. The cryovial was submerged below the lid and agitated for 2.5 min.
E8 media, either with or without apoptosis inhibitors, was added to the thawed suspension of cell aggregates using a flow rate of ˜ 1 ml/min. Dilution factor of 2 was used, meaning each cryovial of cells was used to produce 1 well of a 6-well plate of post-thaw cell culture. Diluted cells were seeded onto a freshly coated culture vessel and placed in 5% CO2 at 37° C. incubator undisturbed for 24 h.
Ability of cryopreserved cells to re-establish culture after thawing was assessed based on a metric of post-thaw cell reattachment. Thawed cells were plated at a specified split ratio. After 24 h, post-thaw culture was washed and stained for live cells with esterase activity using cell permeant dye calcein AM (ThermoFisher Scientific). Live cells in each sample were quantified using a Synergy HT microplate reader (BioTek) in scan mode based on mean fluorescence intensity. Fluorescence measurement was normalized to controls, which were either fresh cells passaged with the same cell density or cells cryopreserved with the same pre-freeze cell concentration using a DMSO-based control formulation, to determine the value of post-thaw cell reattachment for each sample in arbitrary unit.
Controlled-rate freezing protocol remained constant with a cooling rate of 1° C./min and an ice nucleation temperature of −4° C.
(§1) Different forms of cellular damage were identified. Low-temperature spectroscopy was conducted as described earlier to characterize the formation of intracellular ice at −50° C. Both pre-freeze and post-thaw, cells were stained for ROS and free radicals using H2DCFDA (ROS Detection Assay Kit, BioVision) at 37° C. for 45 min to characterize oxidative stress by immunofluorescence and microplate assay. Thawed cells were also stained for caspase enzyme activity using FAM-FLICA (from ImmunoChemistry Technologies, LLC in Bloomington, Minn.) to detect apoptosis. Size of cell aggregates post-thaw was observed visually. Post-thaw cell recovery, reattachment and proliferation were measured as described earlier. Cells cryopreserved using 10% DMSO in PBS++ was used as a control. Brightfield and fluorescent images were acquired using a Carl Zeiss Axioskop 50 with a 10× air objective (NA 0.30, Plan-Neofluar, Carl Zeiss) or a 20× air objective (NA 0.50, Plan-Neofluar, Carl Zeiss) and a Spot Insight Firewire 2 Camera. Microplate assay was quantified using a Synergy HT microplate reader (BioTek).
Different types of additives were tested. P188 5% w/v was added to both the basal solution and the 2× cryopreservation solution to stabilize cell membrane. 2× NEAA was added pre-freeze to the 2× cryopreservation solution to conserve cellular energy. […]

[2] = tested on: iPS cell aggregates; assay: Cell proliferation of post-thaw culture from 24 to 48 h; type: cell-based, human; settings: 1: no net change in total live cell count in culture
Method: as §1
Different types of additives were tested. P188 5% w/v was added to both the basal solution and the 2× cryopreservation solution to stabilize cell membrane. 2× NEAA was added pre-freeze to the 2× cryopreservation solution to conserve cellular energy. The following molecules were used to target general or specific apoptosis pathways and added at the given working concentration either pre-freeze or post-thaw: 10 μM rho kinase inhibitor (or ROCK inhibitor, Y-27632, […] Technologies), 20 μM pan caspase inhibitor (Z-VAD-FMK, from ApexBio Technology LLC in Houston, Tex.), 1 μg/ml Fas ligand inhibitor (Recombinant Human Fas/TNFRSF6-Fc Chimera from BioLegend in San Diego, Calif.), 100 ng/ml each of TNF-related apoptosis-inducing ligand (TRAIL) inhibitors targeting TRAIL receptor 1 (Recombinant Human TNFRSF10A-Fc Chimera, BioLegend), TRAIL receptor 2 (Recombinant Human TNFRSF10B-Fc Chimera, BioLegend), and TRAIL receptor 4 (Recombinant Human TNFRSF10D-Fc Chimera, BioLegend) respectively.

[3] = tested on: iPS cell aggregates; assay: Screening of osmolytes for wash-free cryopreservation (cytotoxicity limits by cell reattachment); settings: 300 mM, 30 min, in HBSS at room temperature; observed 24 hours later
Method: Different types of sugars (disaccharides) and sugar alcohols (all BioUltra or PharmaGrade, Sigma-Aldrich) were individually tested for cytotoxicity limits based on its effect on cell reattachment. In consideration for pre-freeze cell processing, each molecule of a given concentration among 300 mM, 150 mM, and 75 mM was used to incubate cell aggregates suspended in HBSS at room temperature for 30 minutes or 1 hour. Then, in consideration of wash-free thawing at minimum dilution ratio of 2, each sample of cell aggregates were mixed at 1:1 volume ratio with E8 media and plated on vitronectin-coated culture vessel. 24 hours later, cell reattachment was observed qualitatively under a Nikon TMS inverted phase contrast microscope. Disaccharides included sucrose, trehalose, maltose, and lactose.

COC(=O)C[C@H](NC(=O)[C@H](C)NC(=O)[C@@H](NC(=O)OCc1ccccc1)C(C)C)C(=O)CF [Pan caspase, Z-VAD-FMK] (Cbz-Val-Ala-Asp(OMe)-CH2F)
Post-thaw reattachment rate of cell aggregates buffered in HBSS ([1]; inhibitor added post-thaw): 100%
Post-thaw reattachment rate of cell aggregates buffered in PBS++ ([1]; inhibitor added post-thaw): 30%
Post-thaw reattachment rate of cell aggregates buffered in PBS++ ([1]; inhibitor added pre-freeze): 15%
Cell proliferation of culture cryopreserved in HBSS from 24 to 48 h post-thaw ([2]; inhibitors added post-thaw): 3.312

C[C@@H](N)[C@H]1CC[C@H](C(=O)Nc2ccncc2)CC1 [Rho kinase, Y-27632]
Post-thaw reattachment rate of cell aggregates buffered in HBSS ([1]; inhibitor added pre-freeze): 104%
Post-thaw reattachment rate of cell aggregates buffered in PBS++ ([1]; inhibitor added post-thaw): 11%
Post-thaw reattachment rate of cell aggregates buffered in PBS++ ([1]; inhibitor added pre-freeze): 109%
Cell proliferation of culture cryopreserved in HBSS from 24 to 48 h post-thaw ([2]; inhibitors added pre-freeze): 0.967

Fas ligand
Post-thaw reattachment rate of cell aggregates buffered in HBSS ([1]; inhibitor added post-thaw): 106%
Post-thaw reattachment rate of cell aggregates buffered in HBSS ([1]; inhibitor added pre-freeze): 76%
Post-thaw reattachment rate of cell aggregates buffered in PBS++ ([1]; inhibitor added post-thaw): 62%
Post-thaw reattachment rate of cell aggregates buffered in PBS++ ([1]; inhibitor added pre-freeze): 45%
Cell proliferation of culture cryopreserved in HBSS from 24 to 48 h post-thaw ([2]; inhibitors added post-thaw): 1.749
Cell proliferation of culture cryopreserved in HBSS from 24 to 48 h post-thaw ([2]; inhibitors added pre-freeze): 1.713

ethylene glycol
Conditions and observation: cell reattachment after incubation [3]: many colonies, normal morphology
